Assays:
[1] = molecular target: T1, human mineralocorticoid receptor (hMR) (Homo sapiens, UniProt P08235); test: GAL4-hMR-LBD luciferase reporter assay in HEK293 cells with 1 nM aldosterone (Test Example 1); assay type: cell-based; details: for Emax: HEK293, read-out: Imax; for IC50: concentration showing Imax/2, HEK293, GAL4-hMR-LBD, 1 nM aldosterone, overnight, read-out: ICmax50;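 as to Imax: 0% is DMSO-only control and 100% is 1 nM aldosterone alone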
T1 construct: expressed in transfected cells; host or cells: HEK293
T1 sequence (P08235 726-964 limits assumed): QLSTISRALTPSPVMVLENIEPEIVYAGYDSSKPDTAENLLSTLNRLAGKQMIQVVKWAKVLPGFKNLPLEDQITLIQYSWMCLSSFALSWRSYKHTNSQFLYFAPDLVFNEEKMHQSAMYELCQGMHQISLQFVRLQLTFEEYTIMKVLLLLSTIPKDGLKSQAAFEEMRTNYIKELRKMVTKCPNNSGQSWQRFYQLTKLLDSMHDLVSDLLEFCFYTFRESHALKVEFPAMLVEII
Method: A plasmid pM-hMR-LBD expressing GAL4-hMR receptor, which has a ligand binding domain (LBD, corresponding to approximately 308 amino acids at the carboxy terminus) of human mineralocorticoid receptor (hMR, NM_000901) bonded to a DNA binding domain of yeast transcription factor GAL4 (corresponding to 147 amino acids at the amino terminus), was prepared. Reporter assay was conducted by using a reporter plasmid (such as plasmid pFR-Luc of […] CLONING SYSTEMS) including a luciferase gene, having a sequence (UAS sequence) which binds to the DNA binding domain of GAL4.
The plasmid pM-hMR-LBD and the reporter plasmid as obtained above were gene transferred into renal cell line HEK293 of human fetus by lipofection. On the next day, cells were collected by trypsin treatment, and dispensed with DMEM culture medium containing 5% of FBS treated by activated charcoal, to a white 96-well plate (Costar) with the amount of 95 microliter per well.
The test compounds were used as dissolved in dimethyl sulfoxide at a predetermined concentration, and the test compounds suitably diluted with culture media were added to the cells on the white 96-well plate so that the final concentration becomes 0.1%. […] After the addition, cultivation was carried out overnight.
On the next day, the culture media was removed, and then luciferase substrate (Wako Pure Chemical Industries, Ltd.) was prepared in accordance with the attached document and were added to each well by 50 microliters. Stirring was conducted for approximately 30 minutes, and the amount of luminescence was measured for each well by using Analyst (Molecular Devices), to obtain luciferase activity. A graph which plots relative luciferase activity values, when the luciferase activity value of Control group 1 was taken as 0% and the luciferase activity value of Control group 2 was taken as 100%, for each of the amount of the test compound addition group was made.

[2] = Plasma concentration after intragastric administration to cynomolgus monkey (Test Example 2); assay type: in vivo; details: for AUC, area under the plasma concentration versus time curve / Cmax: male cynomolgus monkey, 3 mg/kg intragastric in 0.5% MC, LC-MS/MS, plasma; for AUC, area under the plasma concentration versus time curve: noncompartment model; for Cmax: po, read-out: Cmax, maximum concentration
Method: Cynomolgus monkey (male) was used, and it was fasted from the day before administration of the test compound.
Administration samples were prepared by adding a 0.5% MC (methyl cellulose) solution to the Test Compound, so that the dose becomes 3 mg/2 mL/kg. Each of the administration samples was administered intragastrically to the cynomolgus monkey by using a tube. After the samples were administered, approximately 5 mL of 0.5% MC was administered. For each of the administration samples, a group of two cynomolgus monkeys was administered.
With respect to collection of blood, it was conducted by collecting approximately 0.5 mL of blood from crotch vein using a glass syringe treated with heparin, before administration, and 30 minutes, 1, 2, 4, 6, 8, 24 and 48 hours after administration. Blood was centrifuged (1,700×g, 15 min, 4° C.) to obtain plasma. Plasma was stored in a freezer (−20° C.) until pretreatment.
Preparation of standard solution and internal standard (IS) solution: Each of the Test Compounds was dissolved in DMSO (dimethyl sulfoxide) to prepare a solution of 10 mM each. Each of the compound solution was diluted with acetonitrile, and thus standard solution was prepared. Further, niflumic acid (Wako Pure Chemical Industries, Ltd.) was dissolved in DMSO at the concentration of 2 mM, followed by dilution with acetonitrile to prepare an IS solution of 2 μM.
Pretreatment of plasma samples: 20 μL of plasma sample was collected, and then 25 μL of purified water, 100 μL of acetonitrile, and 100 μL of methanol was added. For the preparation of a calibration curve, 25 μL of purified water, 20 μL of each of the standard solutions (acetonitrile solution), 80 μL of acetonitrile, and 100 μL of methanol were added to 20 μL of blank plasma. 40 μL of the acetonitrile solution of IS was added to all of the samples, and then the samples were stirred, filtered by suction using Captiva filter plate (Varian, Inc.), and then the filtrate was used as the sample for LC-MS/MS analysis.
Quantitative Determination of Test Compound: Concentration in plasma was analyzed by LC-MS/MS method for each Test Compound.
Analysis: Pharmacokinetic parameter was calculated from concentration of each of the drugs in plasma, by using WinNonlin Professional (Ver. 4.0.1, Pharsight Corporation). Here, Noncompartment model was used as the model for parameter calculation.

Row | SMILES | Emax [1] | IC50 [1] | AUC, area under the plasma concentration versus time curve [2] | Cmax [2] | concentration in plasma compared with Reference compound A and Reference compound B ([2]; summary of Table 16, cynomolgus monkey, 3 mg/kg)
1 | Cc1c(C(=O)Nc2ccc(S(C)(=O)=O)cc2)cc(C[C@H](C)O)n1-c1ccc(Cl)cc1C(F)(F)F (single isomer, unassigned) [Example 6 - isomer A] | 79% | 3.1 nM | 30.28 µg·h/mL | 1730 ng/mL | 
2 | Cc1c(C(=O)Nc2ccc(S(C)(=O)=O)cc2)cc(C[C@H](C)O)n1-c1ccc(F)cc1OC(F)(F)F (single isomer, unassigned) [Example 16 - isomer A] | 101% | 3.6 nM | 13.49 µg·h/mL | 1000 ng/mL | 
3 | Cc1c(C(=O)Nc2ccc(S(C)(=O)=O)cc2)cc(CCF)n1-c1ccc(F)cc1OC(F)F (single isomer, unassigned) [Example 54 - isomer A, 1-[2-(Difluoromethoxy)-4-fluorophenyl]-5-(2-fluoroethyl)-2-methyl-N-[4-(methylsulfonyl)phenyl]-1H-pyrrole-3-carboxamide] | 99% | 6.5 nM | 11.41 µg·h/mL | 970 ng/mL | 
4 | Cc1c(C(=O)Nc2ccc(S(C)(=O)=O)cc2)cc(C[C@H](C)O)n1-c1ccc(F)cc1Cl (single isomer, unassigned) [Example 40 - isomer A] | 91% | 9.6 nM | 15.11 µg·h/mL | 1300 ng/mL | 
5 | CCc1c(C(=O)Nc2ccc(S(C)(=O)=O)cc2)cc(C[C@H](C)O)n1-c1ccc(F)cc1Cl (single isomer, unassigned) [Example 44 - isomer B] | 98% | 12 nM | 16.92 µg·h/mL | 940 ng/mL | 
6 | Cc1cc(Cl)ccc1-n1c(CCF)cc(C(=O)Nc2ccc(S(C)(=O)=O)cc2)c1C (single isomer, unassigned) [Example 51 - isomer A, 1-(4-Chloro-2-methylphenyl)-5-(2-fluoroethyl)-2-methyl-N-[4-(methylsulfonyl)phenyl]-1H-pyrrole-3-carboxamide] | 124% | 11 nM | 10.94 µg·h/mL | 830 ng/mL | 
7 | Cc1c(C(=O)Nc2ccc(S(C)(=O)=O)cc2)cc(C[C@H](C)O)n1-c1ccc(Cl)cc1OC(F)(F)F (single isomer, unassigned) [Example 42 - isomer B] | 95% | 2.7 nM | 23.86 µg·h/mL | 1660 ng/mL | 
8 | Cc1cc(C(=O)Nc2ccc(S(C)(=O)=O)cc2)c(C)n1-c1ccccc1C(F)(F)F [Reference compound A, 1-[2-(trifluoromethyl)phenyl]-2,5-dimethyl-N-[4-(methylsulfonyl)phenyl]-1H-pyrrole-3-carboxamide, reference compound] | 114% | 14 nM | 0.03 µg·h/mL | < 10 ng/mL | 
9 | Cc1c(C(=O)Nc2ccc(S(C)(=O)=O)cc2)cc(C[C@H](C)O)n1-c1ccc(F)cc1C(F)(F)F (single isomer, unassigned) [Example 5 - isomer A] | 119% | 3.4 nM | 31.31 µg·h/mL | 1600 ng/mL | 
10 | Cc1c(C(=O)Nc2ccc(S(C)(=O)=O)cc2)cc(C[C@H](C)O)n1-c1ccc(F)cc1OC(F)F (single isomer, unassigned) [Example 9 - isomer A] | 84% | 18 nM | 23.95 µg·h/mL | 2350 ng/mL | 
11 | Cc1c(C(=O)Nc2ccc(S(C)(=O)=O)cc2)cc(C[C@H](C)O)n1-c1ccc(Cl)cc1OC(F)F (single isomer, unassigned) [Example 11 - isomer A] | 89% | 7.3 nM | 24.81 µg·h/mL | 1600 ng/mL | 
12 | Cc1c(C(=O)Nc2ccc(S(C)(=O)=O)cc2)cc(C[C@H](C)O)n1-c1ccc(Cl)cc1Cl (single isomer, unassigned) [Example 43 - isomer A] | 123% | 5.5 nM | 14.82 µg·h/mL | 1140 ng/mL | 
13 | Cc1cc(C(=O)Nc2ccc(S(C)(=O)=O)cc2)c(C)n1-c1ccc(F)cc1C(F)(F)F [Reference compound B, 1-[4-fluoro-2-(trifluoromethyl)phenyl]-2,5-dimethyl-N-[4-(methylsulfonyl)phenyl]-1H-pyrrole-3-carboxamide, reference compound] | 93% | 12 nM | 0.17 µg·h/mL | 10 ng/mL | 
14 | Cc1c(C(=O)Nc2ccc(S(C)(=O)=O)cc2)cc(CCO)n1-c1ccc(Cl)cc1C(F)(F)F (single isomer, unassigned) [Example 1 - isomer A, 1-[4-Chloro-2-(trifluoromethyl)phenyl]-5-(2-hydroxyethyl)-2-methyl-N-[4-(methylsulfonyl)phenyl]-1H-pyrrole-3-carboxamide] | 87% | 3.7 nM | 14.11 µg·h/mL | 990 ng/mL | 
15 | Cc1c(C(=O)Nc2ccc(S(C)(=O)=O)cc2)cc(CCO)n1-c1ccc(F)cc1C(F)(F)F [Example 62, 1-[4-Fluoro-2-(trifluoromethyl)phenyl]-5-(2-hydroxyethyl)-2-methyl-N-[4-(methylsulfonyl)phenyl]-1H-pyrrole-3-carboxamide] |  |  | 8.06 µg·h/mL | 660 ng/mL | considerably improved concentration in plasma
